Assay results: US20230365590A1, “BIPHENYL COMPOUND AS IMMUNOMODULATOR, PREPARATION METHOD THEREFOR AND APPLICATION THEREOF” (SHENZHEN CHIPSCREEN BIOSCIENCES CO., LTD., priority 2020, published 2023)

Tests used:
[1] = Single-dosing pharmacokinetics test; assay type: in vivo, B-hPD-1/hPD-L1 female mice; conditions: female, B-hPD-1/hPD-L1 (humanized), mouse, po; humanized mice, single dose of 100 mg/kg by gavage, plasma
Method: 24 6-week old B-hPD-1/hPD-L1 female mice (purchased from Biocytogen (Jiangsu) Gene Biotechnology Co., Ltd.) were taken and the test compound was dissolved in a solvent containing 5% DMSO, 60% PEG400 and 35% purified water. The compound I-6 and three control molecules, Example 17, Compound 14 (INCB086550) and Example 180 were dosed. The compound was administered by gavage in a single dose of 100 mg/kg and blood was collected through fundus vein plexus after administration. The time points for blood collection were 15 min, 30 min, 1 h, 2 h, 4 h, 8 h, 24 h, 32 h and 48 h. About 0.1 mL of blood was collected and centrifuged in a centrifuge tube (heparin sodium anticoagulation) at 5000 rpm for 5 min to separate plasma, and then frozen at −20° C. for testing. After the plasma sample was treated, the concentration of the compound in the plasma was determined by liquid chromatography-mass spectrometry (LC-MS/MS). The pharmacokinetic parameters were calculated using Phoenix WinNonlin 7.0 based on the average blood concentration data at different time points.

[2] = Repeated-dosing pharmacokinetics test; assay type: in vivo, B-hPD-1/hPD-L1 humanized female mice; conditions: female, B-hPD-1/hPD-L1 (humanized), mouse, po; humanized mice, 50 mg/kg by gavage once a day for 12 days, plasma on day 12
Method: 24 6-week old B-hPD-1/hPD-L1 humanized female mice (purchased from Biocytogen (Jiangsu) Gene Biotechnology Co., Ltd.) were taken and the test compound was dissolved in a solvent containing 5% DMSO, 60% PEG400 and 35% purified water. The compound I-6 and three control molecules, Example 17, Compound 14 (INCB086550) and the aforementioned Example 180 were dosed. The compound was administered by gavage once a day in a dose of 50 mg/kg for 12 consecutive days, and blood was alternately collected through fundus vein plexus on day 12 of administration. The time points for blood collection were 15 min, 30 min, 1 h, 2 h, 4 h, 8 h, 24 h, 32 h and 48 h. About 0.1 mL of blood was collected and centrifuged in a centrifuge tube (heparin sodium for anticoagulation) at 5000 rpm for 5 min to separate plasma, and then frozen at −20° C. for testing. The concentration of the compound in the plasma was determined by liquid chromatography-mass spectrometry (LC-MS/MS). The pharmacokinetic parameters were calculated using Phoenix WinNonlin 7.0 based on the average blood concentration data at different time points.

[3] = clinical studies; cited from earlier work

AUC(0-t) [1] [ng·h/mL] | MRT [1] [h] | half-life [1] [h] | AUC(0-t) [2] [ng·h/mL] | MRT [2] [h] | half-life [2] [h] | Compound | half time T1/2 [3] [h]
19600 | 5.9 | 3.9 | 10600 | 5 | 3.7 | Cc1c(Nc2nccc3cc(CN4CC[C@@H](O)C4)cnc23)cccc1-c1cccc(-c2nc3cc(CN4CC[C@@H](C(=O)O)C4)cc(C#N)c3o2)c1C [Compound 14 (INCB086550)] | 
 |  |  |  |  |  | pembrolizumab: PD-1/PD-L1 antibody drug | 600
 |  |  |  |  |  | nivolumab: PD-1/PD-L1 antibody drug | 605
118000 | 4.2 | 3.8 | 58800 | 4.6 | 3.9 | Cn1c(C(=O)Nc2cccc(-c3cccc(NC(=O)c4nc5c(n4C)CCN(CCC46CCC(C(=O)O)(CC4)C6)C5)c3Cl)c2Cl)nc2c1CCN(CCC13CCC(C(=O)O)(CC1)C3)C2 [Example 17] | 
 |  |  |  |  |  | atezolizumab: PD-1/PD-L1 antibody drug | 648
